Assay results: article PMC9078569, “Understanding the inhibitory mechanism of tea polyphenols against tyrosinase using fluorescence spectroscopy, cyclic voltammetry, oximetry, and molecular simulations” (RSC Advances, 2018)
Like-named read-outs stand apart in the source and are kept apart here.

Tests used:
[1] = system: Tyrosinase (TYR, EC1.14.18.1) from mushroom; experiment: Fluorescence quenching of tyrosinase by TPs (Stern–Volmer analysis); format: binding; conditions: for bimolecular quenching constant (κq): calculated by KSV/τ0, τ0 10^−8 s; for Stern–Volmer quenching constant (KSV): excited at 274 nm, pH 6.5; for binding constant (KA): static quenching equation
Description: The fluorescence spectrum of the TP-TYR complex was measured according to our previous work.[27] Briefly, 10 mM TP was titrated into 3 mL potassium phosphate buffer (pH 6.5) containing 10 units tyrosinase under continuous stirring and nitrogen exists. After 5 minutes, tyrosinase was excited at 274 nm and the emission spectrum over the range of 280 nm to 400 nm was detected through a 3 nm slit. The emission spectrum of the tyrosinase solution was also directly measured as a background.
Fluorescence quenching mechanism is usually divided into static or dynamic manner.[46] To clarify the quenching mechanism of the interaction between tyrosinase and TPs, we analyzed the fluorescence quenching data using the Stern–Volmer equation.[47]2 [drawing 2] where F0 and F are the relative fluorescence intensities before and after the addition of inhibitor, respectively; κq is the bimolecular quenching rate constant; τ0 is the fluorescence lifetime at 10^−8 s for most biological macromolecules,[48] [Q] is the concentration of inhibitor and KSV is the Stern–Volmer quenching constant. The Stern–Volmer quenching constant (KSV) determined by linear regression of a curve of F0/F versus [Q] was plotted in Fig. 2 (inset). As listed in Table 1, the KSV value of ECG with less one hydroxyl group on ring B is much higher than that of EGCG. Good linear relationships in three Stern–Volmer plots of TPs are generally the indication of a single type of quenching manner. The calculated κq values by KSV/τ0 are 0.48 × 10^12, 4.10 × 10^12 and 3.13 × 10^12 M^−1 for catechin, ECG and EGCG, respectively. […] For static quenching mechanism, the binding site number (n) and association constant (KA) can be obtained by the following equation:[49]3 [drawing 3]

[2] = system: Tyrosinase (TYR, EC1.14.18.1) from mushroom; experiment: Oximetry: oxygen utilization in oxidation of TPs by tyrosinase and of L-DOPA by the remaining tyrosinase; format: biochemical; conditions: for inactivation rate (k2) of tyrosinase / oxidation rate (k1): fit of oxygen utilization curve, 30 °C, pH 6.5; for partition ratio (r): molecules of inhibitor required to inactivate one molecule of tyrosinase: intercept on abscissa, ESI Fig. 3
Description: The oxygen consumption in the process of tyrosinase interacting with TPs was monitored with the reported method.[28] Briefly, 0.4 mL of 8.2 mM TP was added to 19.2 mL phosphate buffer (pH 6.5). After equilibrating at 30 °C for 5 min, 0.4 mL of 500 unit per ml tyrosinase was injected to TP solution under continuous stirring. The decrease of oxygen was monitored with the dissolved oxygen meter. In order to evaluate the remaining activity of tyrosinase, L-DOPA was added to the above mixture of tyrosinase and TP after 5 minutes if no oxygen decreasing was observed, followed by monitoring the secondary oxygen utilization in the oxidation reaction of L-DOPA catalyzed by the remaining tyrosinase. The concentration of L-DOPA was 194 μM.
To further reveal tyrosinase inhibitory mechanisms of TPs, we monitored oxygen utilization against time starting from the injecting of TPs into tyrosinase solution using oximetry. The corresponding time-dependent curves of oxygen utilization are depicted in Fig. 4A. In the initial stage, the increase of oxygen utilization for TPs further corroborates that TPs could be oxidized by tyrosinase like-as substrate manner. The time-dependent curves of oxygen utilization can be better fitted with the following equation:[28]4 [drawing 4] where, Ut is the oxygen consumption at time t; E0 is the initial amount of tyrosinase; k1 and k2 are the oxidation rate and the inactivation rate of tyrosinase, respectively. As listed in Table 2, ECG and catechin can inactivate tyrosinase with inactivation rate (k2) of 0.018 and 0.016, respectively, while the inactivation rate of EGCG is ∼4 times lower than catechin. […] Furthermore, the catecholase activities of residual tyrosinase were evaluated by the oxygen utilization of L-DOPA. […] The slope (K) of oxygen consumption curve is positive proportional to the amount of residual tyrosinase.[64] Obviously, the remaining quantity of tyrosinase for EGCG is largest, while the residual amount is least for ECG. […] In this inactivation pathway, the catechol is converted to an intermediate by deprotonation and reductive elimination along with the leaving of forming Cu(0) from catalytic center, leading to the irreversible inactivation of tyrosinase.[28] However, the oxidation of ring B on EGCG or ring G on both ECG and EGCG (the pyrogallol group) catalyzed by tyrosinase should be competitive with the natural substrate (such as L-DOPA) through the diphenolase-like catalytic pathway (as shown in Fig. 5), because the three adjacent hydroxyl groups on the pyrogallol group having larger steric hindrance and worse orientation were unfavorable to the insert of additional oxygen on the aromatic ring.[28] Tyrosinase at last can be reactivated after catalyzing the oxidation of two molecules of EGCG, accounting for the lower inhibitory activity of EGCG than ECG and catechin. […] As shown in ESI Fig. 3 ^† (the intercept on abscissa), inactivating one molecule of tyrosinase requires 14.7 molecules of ECG or 38.7 molecules of catechin, being better consistent with their inactivation rate. The lower inactivation efficiency against tyrosinase explained that catechin has weaker inhibitory activity than ECG.

[3] = molecular target: T1, Tyrosinase (TYR, EC1.14.18.1) from mushroom (Agaricus bisporus, UniProt C7FF04); experiment: Inhibition of diphenolase activity of tyrosinase with L-DOPA as substrate (spectroscopy at 475 nm; HPLC for catechin); format: biochemical
T1 construct: purchased Sigma-Aldrich
T1 sequence (C7FF04 1-392): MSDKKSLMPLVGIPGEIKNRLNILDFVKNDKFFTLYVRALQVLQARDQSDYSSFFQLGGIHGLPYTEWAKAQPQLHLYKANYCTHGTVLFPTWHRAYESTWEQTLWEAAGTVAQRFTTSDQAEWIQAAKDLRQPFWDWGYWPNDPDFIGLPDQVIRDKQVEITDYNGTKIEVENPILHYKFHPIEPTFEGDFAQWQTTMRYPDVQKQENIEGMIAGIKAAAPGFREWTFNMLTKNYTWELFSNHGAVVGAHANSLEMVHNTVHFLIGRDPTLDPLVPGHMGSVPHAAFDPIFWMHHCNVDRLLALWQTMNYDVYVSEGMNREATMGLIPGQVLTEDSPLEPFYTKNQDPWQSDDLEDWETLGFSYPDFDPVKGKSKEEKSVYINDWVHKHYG
Description: The inhibitory activity of the TPs, i.e., catechin, ECG, and EGCG, and a positive control, i.e., KA, against diphenolase activity of tyrosinase was measured with L-DOPA as a substrate using the reported spectroscopy method.[13,24] Assays were conducted in a 96-well micro-plate and a spectrophotometer reader was used to determine the absorbance.[25] Briefly, 6 μL of 1000 unit per mL tyrosinase solution was combined with potassium phosphate buffer (pH 6.5) and 1 mM KA or TPs (both dissolved in potassium phosphate buffer, pH 6.5). After pre-incubating at 25 °C for 5 min, 150 μL of 1 mM L-DOPA aqueous solution was added, followed by incubation at 25 °C for 10 min, again, before the concentration determination of DOPA quinone at 475 nm absorbance. The total volume of each reaction system was 300 μL. […] The inhibitory activity was expressed by IC50 value, which is equal to the concentration of inhibitor at 50% inhibitory rate according to the following equation:[25]1 [drawing 1] where, A is the optical density (OD475) of potassium phosphate buffer; B, C and D are the OD475 of potassium phosphate buffer with tyrosinase, with both TPs and tyrosinase, and with TPs, respectively.

[4] = diphenolase activity, L-DOPA substrate, pH 6.5, 25 °C, read-out: IC50

Row | Structure (SMILES) | association constant (KA) [1] | bimolecular quenching constant (κq) [1] | Stern–Volmer quenching constant (KSV) [1] | binding constant (KA) [1] | inactivation rate (k2) of tyrosinase [2] | oxidation rate (k1) [2] | partition ratio (r): molecules of inhibitor required to inactivate one molecule of tyrosinase [2] | IC50 [3, 4] | IC50 [3] | tyrosinase inhibitory activity, fold stronger than that of EGCG ([3]; by IC50 values) | inactivation rate, times lower than catechin [2] | slope (K) of the residual tyrosinase oxidizing L-DOPA substrate ([2]; oxygen utilization, 194 μM L-DOPA added after TP)
1 | Oc1cc(O)c2c(c1)OC(c1ccc(O)c(O)c1)C(O)C2 (single isomer, unassigned; (+)) [Catechin, (+)-catechin] | 0.04 × 10^5 | 4.8e+11 M⁻¹ s⁻¹ | 4800 M⁻¹ | 0.04 ×10^5 | 0.016 | 0.063 | 38.7 molecules | 57.1 µM |  |  |  | 
2 | O=C(OC1Cc2c(O)cc(O)cc2OC1c1ccc(O)c(O)c1)c1cc(O)c(O)c(O)c1 (single isomer, unassigned; (-)) [ECG, (−)-epicatechin gallate] | 0.53 × 10^5 | 4.1e+12 M⁻¹ s⁻¹ | 41000 M⁻¹ | 0.53 ×10^5 | 0.018 | 0.068 | 14.7 molecules |  | 22.6 µM | 6 fold |  | 
3 | O=C(OC1Cc2c(O)cc(O)cc2OC1c1cc(O)c(O)c(O)c1)c1cc(O)c(O)c(O)c1 (single isomer, unassigned; (-)) [EGCG, (−)-epigallocatechin-3-O-gallate] | 3.07 × 10^5 | 3.13e+12 M⁻¹ s⁻¹ | 31300 M⁻¹ | 3.07 ×10^5 | 0.004 | 0.007 |  | 142 µM |  |  | ~4 times | 0.39
